# Assay results: US11724997B2, “Compounds and compositions for treating conditions associated with APJ receptor activity” (Annapurna Bio, Inc., priority 2018, dated 2023)
# Biological target: T1, APJ Receptor (Homo sapiens, UniProt P35414)
# T1 sequence (P35414 1-380): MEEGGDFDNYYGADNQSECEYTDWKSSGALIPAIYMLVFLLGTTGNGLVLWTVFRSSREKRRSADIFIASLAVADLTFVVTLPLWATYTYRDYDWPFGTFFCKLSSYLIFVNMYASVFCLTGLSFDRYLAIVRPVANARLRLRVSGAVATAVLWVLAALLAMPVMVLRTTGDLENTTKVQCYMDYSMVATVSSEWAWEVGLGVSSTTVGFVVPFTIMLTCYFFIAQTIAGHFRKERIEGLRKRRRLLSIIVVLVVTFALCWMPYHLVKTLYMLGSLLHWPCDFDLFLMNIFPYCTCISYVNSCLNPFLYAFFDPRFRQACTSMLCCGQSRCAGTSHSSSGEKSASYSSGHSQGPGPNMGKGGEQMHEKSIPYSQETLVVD
# Test: APJ cAMP assay: inhibition of forskolin-stimulated cAMP, enzyme fragment complementation, in CHO-K1 cells stably expressing the APJ Receptor
# Format: cell-based
# Details: CHO-K1 cell line (DiscoverX) stably expressing APJ Receptor; EC80 forskolin; 30 minutes at 37° C.; read-out: APJ cAMP EC50 Potency range
# Excerpt: Activation of APJ receptor is known to inhibit forskolin-stimulated cyclic AMP (cAMP) production in cells in a pertussis toxin-sensitive manner which indicates primary coupling to the GαI subunit of the G protein heterotrimeric complex. In addition to signaling through G protein and inhibition of cAMP, APJ receptor activation also results in β-arrestin recruitment, receptor internalization and activation of extracellular-regulated kinases (ERKs).
# In order to optimize functional activity directed toward Gi coupling we utilized a CHO-K1 cell line developed by DiscoverX stably expressing the APJ Receptor. Cells expressing APJR receptor were plated in a 384-well microtiter plates and incubated overnight at 37° C. with 5% CO2 to allow the cells to attach and grow. Media was then aspirated from the cells and replaced with 15 uL 2:1 Hanks Balanced Salt Solution (HBSS)/10 mM Hepes. cAMP XS+ Ab reagent. Five microliters (5 uL) of previously generated compound sample stocks at 4× final concentration in assay buffer containing 4×EC80 forskolin were then added to the cells and allowed to incubate at 37° C. for 30 minutes.
# After incubation the assay signal was generated using a technology termed enzyme fragment complementation (EFC). In EFC the enzyme B-galactosidase is split into two complementary portions (EA and ED). The fragment ED is fused to cAMP and in the assay format competes with endogenous cAMP for binding to a cAMP specific antibody. Activated B-Gal is formed when exogenous EA fragment binds to free ED-cAMP (not bound to cAMP specific antibody). Activated enzyme levels are detected through conversion of B-gal chemiluminescent substrate which generates a detectable luminescence signal and read on standard microtiter plate.
# The methodology for detection of cAMP using EFC requires incubation with 20 uL of cAMP XS+ ED/CL lysis cocktail for one hour followed by incubation with 20 uL cAMP XS+ EA reagent for three hours at room temperature. Microplates were read following signal generation with a PerkinElmer Envision instrument utilizing chemiluminescent signal detection.
# Compound activity was analyzed using CBIS data analysis suite (ChemInnovation, CA).
# Percentage activity was calculated using the following formula: % Activity=[…]×(1−(mean RLU of test sample−mean RLU of Max control)/(mean RLU of vehicle control−mean RLU of Max control))
# The biological activity of the exemplified compounds of this invention determined by the assay described above is shown in Table 1. The APJ cAMP EC50 potency ranges are as follows: A: EC50<1 nM; B: 1≤EC50<100 nM; and C: 100≤EC50<10,000 nM.
row,SMILES,EC50
1,"CCOc1cccc(-c2nnc(C(=O)NS(=O)(=O)[C@H]3CCc4ccccc4C3)n2-c2c(OC)cccc2OC)n1 (single isomer, unassigned) [Example 47]",< 1 nM
2,"COc1cccc(-c2nnc(C(=O)NS(=O)(=O)[C@@H](C)c3ccccc3)n2-c2c(OC)cccc2OC)n1 (single isomer, unassigned) [Example 32]",1 to 100 nM
3,"COc1cccc(OC)c1-n1c(C(=O)NS(=O)(=O)Cc2ccccc2)nnc1-c1ccn(C)n1 [Example 4, N-(benzylsulfonyl)-4-(2,6-dimethoxyphenyl)-5-(1-methyl-1H-pyrazol-3-yl)-4H-1,2,4-triazole-3-carboxamide]",1 to 100 nM
4,"COc1cccc(-c2nnc(C(=O)NS(=O)(=O)Cc3ccccc3)n2-c2c(Cl)cccc2Cl)n1 [Example 60, N-(benzylsulfonyl)-4-(2,6-dichlorophenyl)-5-(6-methoxypyridin-2-yl)-4H-1,2,4-triazole-3-carboxamide]",100 to 10000 nM
5,"COc1cccc(-c2nnc(C(=O)NS(=O)(=O)Cc3ccccc3)n2-c2c(F)cccc2F)n1 [Example 61, N-(benzylsulfonyl)-4-(2,6-difluorophenyl)-5-(6-methoxypyridin-2-yl)-4H-1,2,4-triazole-3-carboxamide]",100 to 10000 nM
6,"COc1cccc(-c2nnc(C(=O)NS(=O)(=O)CC3CC3)n2-c2c(OC)cccc2OC)n1 [Example 35, N-((cyclopropylmethyl)sulfonyl)-4-(2,6-dimethoxyphenyl)-5-(6-methoxypyridin-2-yl)-4H-1,2,4-triazole-3-carboxamide]",1 to 100 nM
7,"COc1cccc(-c2nnc(C(=O)NS(=O)(=O)Cc3ccccc3)n2-c2c(OC)cccc2C(F)(F)F)n1 [Example 62, N-(benzylsulfonyl)-4-(2-methoxy-6-(trifluoromethyl)phenyl)-5-(6-methoxypyridin-2-yl)-4H-1,2,4-triazole-3-carboxamide]",1 to 100 nM
8,"COc1ccc(Cn2nc(C3CC3)nc2-c2nnc(C(=O)NS(=O)(=O)Cc3ccccc3)n2-c2c(OC)cccc2OC)cc1 [Example 64, N-(benzylsulfonyl)-5-cyclopropyl-4′-(2,6-dimethoxyphenyl)-2-(4-methoxybenzyl)-2H,4′H-[3,3′-bi(1,2,4-triazole)]-5′-carboxamide]",100 to 10000 nM
9,"COc1cccc(OC)c1-n1c(C(=O)NS(=O)(=O)Cc2ncccn2)nnc1-c1ccc(C)o1 [Example 17, 4-(2,6-Dimethoxyphenyl)-5-(5-methylfuran-2-yl)-N-((pyrimidin-2-ylmethyl)sulfonyl)-4H-1,2,4-triazole-3-carboxamide]",< 1 nM
10,"COc1cccc(OC)c1-n1c(C(=O)NS(=O)(=O)Cc2ccccc2)nnc1-c1ncc(C)c(OC)n1 [Example 12, N-(benzylsulfonyl)-4-(2,6-dimethoxyphenyl)-5-(4-methoxy-5-methylpyrimidin-2-yl)-4H-1,2,4-triazole-3-carboxamide]",100 to 10000 nM
11,"COc1cccc(OC)c1-n1c(C(=O)NS(=O)(=O)Cc2ccccc2)nnc1-c1cccc(OC(F)F)n1 [Example 21, N-(benzylsulfonyl)-5-(6-(difluoromethoxy)pyridin-2-yl)-4-(2,6-dimethoxyphenyl)-4H-1,2,4-triazole-3-carboxamide]",1 to 100 nM
12,"COc1nc(-c2nnc(C(=O)NS(=O)(=O)Cc3ccccc3)n2-c2c(OC)cccc2OC)cs1 [Example 6, N-(benzylsulfonyl)-4-(2,6-dimethoxyphenyl)-5-(2-methoxythiazol-4-yl)-4H-1,2,4-triazole-3-carboxamide]",1 to 100 nM
13,"CCOc1cccc(-c2nnc(C(=O)NS(=O)(=O)[C@@H]3CCc4ccccc4C3)n2-c2c(OC)cccc2OC)n1 (single isomer, unassigned) [Example 48]",< 1 nM

# Now from value to compound:
row,EC50,SMILES
1,< 1 nM,"CCOc1cccc(-c2nnc(C(=O)NS(=O)(=O)Cc3ncn(C)n3)n2-c2c(OC)cccc2OC)n1 [Example 54, 4-(2,6-Dimethoxyphenyl)-5-(6-ethoxypyridin-2-yl)-N-(((1-methyl-1H-1,2,4-triazol-3-yl)methyl)sulfonyl)-4H-1,2,4-triazole-3-carboxamide]"
2,1 to 100 nM,"COc1cccc(-c2nnc(C(=O)NS(=O)(=O)Cc3cnccn3)n2-c2c(OC)cccc2OC)n1 [Example 37, 4-(2,6-Dimethoxyphenyl)-5-(6-methoxypyridin-2-yl)-N-((pyrazin-2-ylmethyl)sulfonyl)-4H-1,2,4-triazole-3-carboxamide]"
3,< 1 nM,"COc1cccc(-c2nnc(C(=O)NS(=O)(=O)Cc3ncc(Cl)cn3)n2-c2c(OC)cccc2OC)n1 [Example 29, N-(((5-chloropyrimidin-2-yl)methyl)sulfonyl)-4-(2,6-dimethoxyphenyl)-5-(6-methoxypyridin-2-yl)-4H-1,2,4-triazole-3-carboxamide]"
4,< 1 nM,"CCOc1cccc(-c2nnc(C(=O)NS(=O)(=O)Cc3ncccc3F)n2-c2c(OC)cccc2OC)n1 [Example 52, 4-(2,6-Dimethoxyphenyl)-5-(6-ethoxypyridin-2-yl)-N-(((3-fluoropyridin-2-yl)methyl)sulfonyl)-4H-1,2,4-triazole-3-carboxamide]"
5,< 1 nM,"CCOc1cccc(-c2nnc(C(=O)NS(=O)(=O)[C@@H](C)c3ccccc3)n2-c2c(OC)cccc2OC)n1 (single isomer, unassigned) [Example 39]"
6,< 1 nM,"CCOc1cccc(-c2nnc(C(=O)NS(=O)(=O)Cc3ccccc3F)n2-c2c(OC)cccc2OC)n1 [Example 53, 4-(2,6-Dimethoxyphenyl)-5-(6-ethoxypyridin-2-yl)-N-((2-fluorobenzyl)sulfonyl)-4H-1,2,4-triazole-3-carboxamide]"
7,< 1 nM,"COc1cccc(OC)c1-n1c(C(=O)NS(=O)(=O)Cc2ncccn2)nnc1-c1cccc(OC2CC2)n1 [Example 20, 5-(6-Cyclopropoxypyridin-2-yl)-4-(2,6-dimethoxyphenyl)-N-((pyrimidin-2-ylmethyl)sulfonyl)-4H-1,2,4-triazole-3-carboxamide]"
8,< 1 nM,"CCOc1cccc(-c2nnc(C(=O)NS(=O)(=O)Cc3ncccn3)n2-c2c(OC)cccc2OC)n1 [Example 41, 4-(2,6-Dimethoxyphenyl)-5-(6-ethoxypyridin-2-yl)-N-((pyrimidin-2-ylmethyl)sulfonyl)-4H-1,2,4-triazole-3-carboxamide]"
9,< 1 nM,"CCOc1cccc(-c2nnc(C(=O)NS(=O)(=O)C[C@@H](C)c3ccccc3)n2-c2c(OC)cccc2OC)n1 (single isomer, unassigned) [Example 45]"
10,< 1 nM,"CCOc1cccc(-c2nnc(C(=O)NS(=O)(=O)C(C)Cc3ccccc3)n2-c2c(OC)cccc2OC)n1 (stereo not drawn) [Example 57, 4-(2,6-Dimethoxyphenyl)-5-(6-ethoxypyridin-2-yl)-N-((1-phenylpropan-2-yl)sulfonyl)-4H-1,2,4-triazole-3-carboxamide]"
11,1 to 100 nM,"COc1cccc(-c2nnc(C(=O)NS(=O)(=O)Cc3ccccc3)n2-c2c(OC)cccc2OC)n1 [Example 13, N-(benzylsulfonyl)-4-(2,6-dimethoxyphenyl)-5-(6-methoxypyridin-2-yl)-4H-1,2,4-triazole-3-carboxamide]"
12,< 1 nM,"CCOc1cccc(-c2nnc(C(=O)NS(=O)(=O)Cc3cccnc3)n2-c2c(OC)cccc2OC)n1 [Example 56, 4-(2,6-Dimethoxyphenyl)-5-(6-ethoxypyridin-2-yl)-N-((pyridin-3-ylmethyl)sulfonyl)-4H-1,2,4-triazole-3-carboxamide]"
13,1 to 100 nM,"COc1cccc(OC)c1-n1c(C(=O)NS(=O)(=O)Cc2ncccn2)nnc1-c1cccc(OC(F)F)n1 [Example 22, 5-(6-(Difluoromethoxy)pyridin-2-yl)-4-(2,6-dimethoxyphenyl)-N-((pyrimidin-2-ylmethyl)sulfonyl)-4H-1,2,4-triazole-3-carboxamide]"
14,< 1 nM,"CCOc1cccc(-c2nnc(C(=O)NS(=O)(=O)Cc3ccccc3)n2-c2c(OC)cccc2OC)n1 [Example 2, N-(benzylsulfonyl)-4-(2,6-dimethoxyphenyl)-5-(6-ethoxypyridin-2-yl)-4H-1,2,4-triazole-3-carboxamide]"
